Source: ChEMBL document CHEMBL5230103, “Hydroxamic acid hybrids as the potential anticancer agents: An Overview” (Eur J Med Chem, 2020)

Experiments:
Ehrlich = assay: Antitumor activity against mouse EAC cells implanted in mouse assessed as survival rate at 125 mg/kg, ip administered for 10 days; type: functional; conditions: 240 h, time 10 day
MDA-MB-231 [1] = assay: Cytotoxicity against human MDA-MB-231 cells assessed as inhibition of cell growth measured after 24 hrs by MTT assay; type: functional, cell-based; conditions: MDA-MB-231, 24 h
MCF7 [2] = assay: Cytotoxicity against human MCF7 cells assessed as inhibition of cell growth measured after 24 hrs by MTT assay; type: functional, cell-based; conditions: MCF7, 24 h
HCT-116 [3] = assay: Cytotoxicity against human HCT-116 cells assessed as inhibition of cell growth measured after 24 hrs by MTT assay; type: functional, cell-based; conditions: HCT-116, 24 h
NB-4 = assay: Cytotoxicity against human NB-4 cells assessed as inhibition of cell growth by MTT assay; type: functional, cell-based
Kasumi 1 = assay: Cytotoxicity against human Kasumi 1 cells assessed as inhibition of cell growth by MTT assay; type: functional, cell-based
[4] = Selectivity index, ratio of IC50 for cytotoxicity against human HDFa cells to IC50 for cytotoxicity against human 518A2 cells; type: toxicity, cell-based; conditions: HDFa cells and 518A2 cells, pooled result: one value given for 6 cell lines, strains, targets or settings, read-out: Ratio IC50
EA.hy 926 = assay: Potency index, ratio of vorinostat IC50 to test compound IC50 for cytotoxicity against human EA.hy 926 cells; type: functional
KB-V1 [5] = assay: Cytotoxicity against human KB-V1 cells assessed as inhibition of cell growth by MTT assay; type: functional, cell-based
518A2 [6] = assay: Potency index, ratio of vorinostat IC50 to test compound IC50 for cytotoxicity against human 518A2 cells; type: functional
518A2 [7] = assay: Cytotoxicity against human 518A2 cells assessed as inhibition of cell growth by MTT assay; type: functional, cell-based
KB-V1 [8] = assay: Potency index, ratio of vorinostat IC50 to test compound IC50 for cytotoxicity against human KB-V1 cells; type: functional
MCF7 [9] = assay: Potency index, ratio of vorinostat IC50 to test compound IC50 for cytotoxicity against human MCF7 cells; type: functional
MCF7 [10] = assay: Cytotoxicity against human MCF7 cells assessed as inhibition of cell growth by MTT assay; type: functional, cell-based
DLD-1 [11] = assay: Potency index, ratio of vorinostat IC50 to test compound IC50 for cytotoxicity against human DLD-1 cells; type: functional
[12] = Cytotoxicity against human HDFa cells assessed as inhibition of cell proliferation by MTT assay; type: toxicity, cell-based
HT-29 [13] = assay: Cytotoxicity against human HT-29 cells assessed as inhibition of cell growth by MTT assay; type: functional, cell-based
DLD-1 [14] = assay: Cytotoxicity against human DLD-1 cells assessed as inhibition of cell growth by SRB assay; type: functional, cell-based
HT-29 [15] = assay: Potency index, ratio of vorinostat IC50 to test compound IC50 for cytotoxicity against human HT-29 cells; type: functional
MDA-MB-231 [16] = assay: Cytotoxicity against human MDA-MB-231 cells assessed as inhibition of cell growth by SRB assay; type: functional, cell-based
HCT-116 [17] = assay: Cytotoxicity against human HCT-116 cells assessed as inhibition of cell growth by SRB assay; type: functional, cell-based
Histone deacetylase 2 = Histone deacetylase 2 (Homo sapiens, UniProt Q92769); assay: Inhibition of HDAC2 (unknown origin)
Histone deacetylase 3 = Histone deacetylase 3 (Homo sapiens, UniProt O15379); assay: Inhibition of HDAC3 (unknown origin)
HCT-116 [18] = assay: Antitumor activity against human HCT-116 cells xenografted in mouse assessed as tumor growth inhibition at 15 mg/kg, iv relative to control; type: functional; conditions: read-out: TGI
ASPC1 [19] = assay: Cytotoxicity against human ASPC1 cells assessed as inhibition of cell growth by MTT assay; type: functional, cell-based
[20] = molecular target: T1, Protein deacetylase HDAC6 (Homo sapiens, UniProt Q9UBN7); assay: Inhibition of HDAC6 (unknown origin)
T1 sequence (Q9UBN7 whole entry): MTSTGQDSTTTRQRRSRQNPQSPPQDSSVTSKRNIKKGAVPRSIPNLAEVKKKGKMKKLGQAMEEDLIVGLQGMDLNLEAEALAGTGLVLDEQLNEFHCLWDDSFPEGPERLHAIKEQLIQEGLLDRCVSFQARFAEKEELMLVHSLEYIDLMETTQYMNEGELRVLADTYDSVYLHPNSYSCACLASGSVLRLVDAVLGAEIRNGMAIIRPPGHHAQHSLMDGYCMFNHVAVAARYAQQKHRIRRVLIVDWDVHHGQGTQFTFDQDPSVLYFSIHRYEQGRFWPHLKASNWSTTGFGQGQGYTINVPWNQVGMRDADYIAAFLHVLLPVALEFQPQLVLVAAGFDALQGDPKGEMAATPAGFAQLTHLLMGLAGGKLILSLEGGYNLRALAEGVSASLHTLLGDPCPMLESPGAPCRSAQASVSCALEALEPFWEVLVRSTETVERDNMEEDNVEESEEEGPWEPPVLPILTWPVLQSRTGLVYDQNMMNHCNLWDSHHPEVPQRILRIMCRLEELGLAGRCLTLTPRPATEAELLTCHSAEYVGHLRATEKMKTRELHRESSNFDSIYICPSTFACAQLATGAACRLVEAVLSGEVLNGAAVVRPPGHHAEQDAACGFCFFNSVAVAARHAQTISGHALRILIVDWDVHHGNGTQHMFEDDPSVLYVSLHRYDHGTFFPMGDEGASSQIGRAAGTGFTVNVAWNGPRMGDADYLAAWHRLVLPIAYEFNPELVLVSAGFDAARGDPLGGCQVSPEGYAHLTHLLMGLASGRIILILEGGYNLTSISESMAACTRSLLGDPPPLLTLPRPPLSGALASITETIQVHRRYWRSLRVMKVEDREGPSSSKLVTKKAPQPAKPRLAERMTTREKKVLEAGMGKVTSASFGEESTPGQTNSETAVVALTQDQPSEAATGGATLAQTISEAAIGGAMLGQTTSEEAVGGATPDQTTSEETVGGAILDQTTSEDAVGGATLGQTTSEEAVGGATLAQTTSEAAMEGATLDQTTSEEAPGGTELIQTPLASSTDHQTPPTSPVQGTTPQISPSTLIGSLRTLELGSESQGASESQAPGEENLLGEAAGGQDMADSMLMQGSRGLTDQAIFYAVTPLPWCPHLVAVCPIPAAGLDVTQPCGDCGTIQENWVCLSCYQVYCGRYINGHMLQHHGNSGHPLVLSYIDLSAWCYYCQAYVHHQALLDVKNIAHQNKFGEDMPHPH

A549 = assay: Cytotoxicity against human A549 cells assessed as inhibition of cell growth by SRB assay; type: functional
ASPC1 [21] = assay: Cytotoxicity against human ASPC1 cells assessed as inhibition of cell growth by SRB assay; type: functional, cell-based
Histone deacetylase 1 = Histone deacetylase 1 (Homo sapiens, UniProt Q13547); assay: Inhibition of HDAC1 (unknown origin)
[22] = AUCinfinity in CD1 mouse at 2 mg/kg, iv; type: ADME, organism-based; design: dose 2 mg/kg, route iv; conditions: in vivo
[23] = Cmax in CD1 mouse at 2 mg/kg, iv; type: ADME, organism-based; design: dose 2 mg/kg, route iv; conditions: in vivo
[24] = Clearance in CD1 mouse at 2 mg/kg, iv; type: ADME, organism-based; conditions: in vivo
[25] = Half life in CD1 mouse at 2 mg/kg, iv; type: ADME, organism-based; conditions: in vivo

Sequence of Histone deacetylase 2 (Q92769 whole entry): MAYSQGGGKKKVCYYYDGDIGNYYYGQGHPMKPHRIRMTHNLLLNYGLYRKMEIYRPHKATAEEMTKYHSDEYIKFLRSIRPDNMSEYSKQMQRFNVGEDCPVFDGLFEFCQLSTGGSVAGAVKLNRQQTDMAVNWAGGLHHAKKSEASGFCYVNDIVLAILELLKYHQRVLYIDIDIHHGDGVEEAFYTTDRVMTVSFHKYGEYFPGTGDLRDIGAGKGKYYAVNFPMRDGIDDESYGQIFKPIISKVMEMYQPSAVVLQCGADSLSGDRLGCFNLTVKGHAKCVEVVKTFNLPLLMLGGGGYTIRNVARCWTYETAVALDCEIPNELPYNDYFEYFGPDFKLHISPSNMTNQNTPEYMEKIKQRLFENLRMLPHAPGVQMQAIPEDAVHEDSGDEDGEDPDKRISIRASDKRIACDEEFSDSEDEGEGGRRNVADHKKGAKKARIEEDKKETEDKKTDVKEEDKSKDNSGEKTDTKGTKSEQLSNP
Sequence of Histone deacetylase 1 (Q13547 whole entry): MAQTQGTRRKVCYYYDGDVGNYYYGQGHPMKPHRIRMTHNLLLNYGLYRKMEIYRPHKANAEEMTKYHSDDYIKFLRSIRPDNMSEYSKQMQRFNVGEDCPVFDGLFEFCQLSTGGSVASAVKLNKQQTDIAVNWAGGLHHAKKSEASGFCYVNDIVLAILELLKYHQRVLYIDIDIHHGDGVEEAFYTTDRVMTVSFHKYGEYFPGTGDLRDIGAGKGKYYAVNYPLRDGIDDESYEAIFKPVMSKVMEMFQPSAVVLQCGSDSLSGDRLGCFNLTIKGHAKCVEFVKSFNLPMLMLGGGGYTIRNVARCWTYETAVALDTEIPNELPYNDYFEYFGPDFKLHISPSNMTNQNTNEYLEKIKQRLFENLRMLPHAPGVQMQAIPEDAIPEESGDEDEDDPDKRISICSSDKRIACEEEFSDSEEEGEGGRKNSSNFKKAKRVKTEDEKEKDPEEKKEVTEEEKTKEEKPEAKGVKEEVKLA
Sequence of Histone deacetylase 3 (O15379 whole entry): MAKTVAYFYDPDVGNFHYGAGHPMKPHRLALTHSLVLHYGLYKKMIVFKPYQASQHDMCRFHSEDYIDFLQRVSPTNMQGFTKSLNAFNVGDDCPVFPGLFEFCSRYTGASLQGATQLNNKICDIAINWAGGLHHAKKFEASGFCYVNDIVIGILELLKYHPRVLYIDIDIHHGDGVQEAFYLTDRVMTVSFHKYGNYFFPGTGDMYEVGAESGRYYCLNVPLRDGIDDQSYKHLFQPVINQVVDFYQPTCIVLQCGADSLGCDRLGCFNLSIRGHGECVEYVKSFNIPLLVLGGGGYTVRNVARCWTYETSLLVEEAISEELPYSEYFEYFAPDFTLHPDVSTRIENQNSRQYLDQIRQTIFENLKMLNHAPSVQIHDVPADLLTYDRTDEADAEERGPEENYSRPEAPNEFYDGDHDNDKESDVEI

Nn1c(SCCC(=O)NO)nnc1-c1cccnc1
survival at 125 mg/kg (Ehrlich): 205% | IC50 (MDA-MB-231 [1]): 10400 nM | IC50 (MCF7 [2]): 10400 nM | IC50 (HCT-116 [3]): 10400 nM

Cn1c(CCCCCCC(=O)NO)nc2cc(N(CCCl)CCCl)ccc21 [TINOSTAMUSTINE]
IC50 (NB-4): 900 nM | IC50 (Kasumi 1): 820 nM

COc1ccc(-c2ocnc2-c2cc(Br)c(OC)c(OC)c2)cc1OCCCC(=O)NO
selectivity ratio [4]: 8.5 | Ratio IC50 (EA.hy 926): 1.2 | IC50 (KB-V1 [5]): 18 nM | Ratio IC50 (518A2 [6]): 1.2 | IC50 (518A2 [7]): 18 nM | Ratio IC50 (KB-V1 [8]): 1.2 | Ratio IC50 (MCF7 [9]): 1.2 | IC50 (MCF7 [10]): 18 nM | Ratio IC50 (DLD-1 [11]): 1.2 | IC50 [12]: 23900 nM | IC50 (HT-29 [13]): 18 nM | IC50 (DLD-1 [14]): 18 nM | Ratio IC50 (HT-29 [15]): 1.2

Cc1[nH]c2ccccc2c1CCNS(=O)(=O)c1ccc(/C=C/C(=O)NO)cc1
IC50 (MDA-MB-231 [16]): 29 nM | IC50 (HCT-116 [17]): 29 nM | IC50 (Histone deacetylase 2): 5.13 nM | IC50 (Histone deacetylase 3): 5.13 nM | inhibition in vivo at 15 mg/kg (HCT-116 [18]): 50.7% | IC50 (ASPC1 [19]): 490 nM | IC50 [20]: 5.13 nM | GI50 (A549): 29 nM | IC50 (ASPC1 [21]): 29 nM | IC50 (Histone deacetylase 1): 5.13 nM

O=C(NO)C(c1ccccc1)c1c(-c2ccc3ccccc3c2)[nH]c2ccccc12 (stereo not drawn)
AUC(0-inf) [22]: 1090 ng·h/mL | Cmax [23]: 2350 ng/mL | clearance [24]: 30.7 mL/min/kg | half-life [25]: 1.65 h
